The values that follow come from US11578083B2, “Pyrimidinium compounds and their mixtures for combating animal pests” (BASF SE, priority 2017, dated 2023).

The structures appear in SMILES notation.

As a reminder, the mortality is the share of the test organisms that died. High values mean a strong lethal effect, low ones a weak lethal effect.

What all share (assay type): in vivo
Assay [1] concerns brown planthopper (Nilaparvata lugens). The assay can be described thus: Test 6 brown planthopper, foliar spray (mixtures). To be noted: solo application I-R-1, use rate 5 ppm. Here is the method: For evaluating control of brown planthopper (Nilaparvata lugens) by foliar spray method. Clean potted rice seedlings with upper leaf portion cut are properly labeled. Placed three potted rice plants per treatment concentration/combination on top of the rotating disc (270 mm) and sprayed with the 12 mL spray solution. Treated plants are allowed to air-dry in the laboratory for about an hour. After air-drying, covered each treated rice plant. Each treated plant was infested with brown planthoppers using a suction vacuum. Plants are maintained at 27° C.±1° C., 50±5% RH and 24 hours light conditions in a holding room. Percent mortality is recorded 7 days after infestation by counting both the dead and alive brown planthoppers on the plants and on the water.

In assay [2] the test system is Chilo suppressalis. The assay is described as follows: B.3a Rice stem borer vial bioassay. To be noted: 72 h. Here is the method:
Field-collected rice straws were washed with tap water and cut for a certain of length. Straws were air dried before placing individually in vials (=replicate, 3×). About 125 μl test solution was sprayed per vial. Treated rice straws in vials were air dried under the laboratory hood. After air-drying, each straw was inoculated with 10 newly-emerged (0-day old) stem borer larvae. Vials were then covered. Set-up was kept in a holding room maintained at 27° C. and 65% RH for three days. At 3 days after inoculation, rice straws were manually dissected for larval mortality assessment. The data (Table C) show activity against two species of rice stem borers.

In assay [3] the test system is Chilo suppressalis. The assay can be described thus: B.3b Rice striped stem borer, foliar spraying. On the procedure:
All three pots (=replicates) of four to five-week old potted rice per treatment were simultaneously sprayed with 12 mL test solution. After spray application, plants were air dried in the laboratory before inoculation. After air-drying, 5 to 6-day old egg masses of CHILSU were used for inoculation. All stem borer-infested potted rice plants were transferred inside the screenhouse 1 day after inoculation until the final assessment. […] Whole plant damage was assessed before cutting each hill at the basal portion for tiller dissection. Each dissected tiller was inspected looking for dead (if possible) and alive stemborer larvae.

Assay [4] relates to Thrips (Dichromothrips corbetti). The assay is described as follows: B.4 Thrips floral-immersion test. The note with it: 72 h. On the procedure:
B.4 Thrips (Dichromothrips Corbetti):
Dichromothrips corbetti adults used for bioassay are obtained from a colony maintained continuously under laboratory conditions. For testing purposes, the test compound is diluted in a 1:1 mixture of acetone:water (vol:vol), plus 0.01% vol/vol Alkamuls® EL 620 surfactant.
Thrips potency of each compound is evaluated by using a floral-immersion technique. Plastic petri dishes are used as test arenas. All petals of individual, intact orchid flowers are dipped into treatment solution and allowed to dry. Treated flowers are placed into individual petri dishes along with about 20 adult thrips. The petri dishes v then covered with lids. All test arenas are held under continuous light and a temperature of about 28° C. for duration of the assay. After 3 days, the numbers of live thrips are counted on each flower, and along inner walls of each petri dish. The percent mortality is recorded 72 hours after treatment.

Assay [5] has as its system Chilo suppressalis. The assay is described as follows: B.3c Rice striped stem borer, drench application. The note with it: Chilo suppressalis neonates, Dose 10 mg, 14 DAT. An excerpt: The test solution was poured onto the soil of each potted rice plant (=replicate) with five tillers each pot. After drench application, treated plants were transferred inside the screenhouse for three days prior to stemborer inoculation inside the laboratory. Three days after drench application, 5 to 6-day old egg masses of CHILSU were used for inoculation. All stemborer-infested potted rice plants were transferred inside the screenhouse 1 day after inoculation until the final assessment. […] Whole plant damage was assessed before cutting each hill at the basal portion for tiller dissection. Each dissected tiller was inspected looking for dead (if possible) and alive stemborer larvae.

Assay [6] concerns green peach aphid (Myzus persicae). The assay is described as follows: Test 2 green peach aphid, artificial diet (mixtures). An excerpt: For evaluating control of green peach aphid (Myzus persicae) through systemic means the test unit consisted of 96-well-microtiter plates containing liquid artificial diet under an artificial membrane.
The compounds or mixtures were formulated using a solution containing 75% water and 25% DMSO. Concentrations of formulated compounds or mixtures were pipetted into the aphid diet, using a custom built pipetter, at two replications.
(§1) For experimental mixtures in these tests identical volumes of both mixing partners at the desired concentrations respectively, were mixed together.
After application, 5-8 adult aphids were placed on the artificial membrane inside the microtiter plate wells. The aphids were then allowed to suck on the treated aphid diet and incubated at 23±1° C., 50±5% RH for 3 days. Aphid mortality and fecundity was then visually assessed.

The test system of assay [7] is Greenhouse Whitefly (Trialeurodes vaporariorum). The assay can be described thus: Test 11 Greenhouse Whitefly, egg plant leaf disk (mixtures). On the procedure:
For evaluating control of Greenhouse Whitefly (Trialeurodes vaporariorum) the test unit consisted of 96-well-microtiter plates containing a leaf disk of egg plant leaf disk with white fly eggs.
(§2) The compounds or mixtures were formulated using a solution containing 75% water and 25% DMSO. Different concentrations of formulated compounds or mixtures were sprayed onto the insect diet at 2.5 μl, using a custom built micro atomizer, at two replications.
as §1
After application, microtiter plates were incubated at 23±1° C., 65±5% RH for 6 days. Mortality of hatched crawlers was then visually assessed.

Assay [8] has as its system yellow fever mosquito (Aedes aegypti). To be noted: Table 12; Yellow Fever Mosquito; solo application I-R-1, use rate 10 ppm. Here is the method: For evaluating control of yellow fever mosquito (Aedes aegypti) the test unit consisted of 96-well-microtiter plates containing 200 μl of tap water per well and 5-15 freshly hatched A. aegypti larvae.
as §2, §1
After application, microtiter plates were incubated at 28±1° C., 80±5% RH for 2 days. Larval mortality was then visually assessed.

The subject of assay [9] is vetch aphid (Megoura viciae). The assay can be described thus: Test 7 vetch aphid, leaf disks (mixtures). Here is the method:
For evaluating control of vetch aphid (Megoura viciae) through contact or systemic means the test unit consisted of 24-well-microtiter plates containing broad bean leaf disks.
The compounds or mixtures were formulated using a solution containing 75% water and 25% DMSO. Concentrations of formulated compounds or mixtures were sprayed onto the leaf disks at 2.5 μl, using a custom built micro atomizer, at two replications.
as §1
After application, the leaf disks were air-dried and 5-8 adult aphids placed on the leaf disks inside the microtiter plate wells. The aphids were then allowed to suck on the treated leaf disks and incubated at 23±1° C., 50±5% RH for 5 days. Aphid mortality and fecundity was then visually assessed.

For `C[n+]1c([O-])c(-c2ccccc2)c(=O)n2c1SC[C@@H]2c1cnc(Cl)s1` [I-R-1, (3R)-3-(2-chlorothiazol-5-yl)-8-methyl-7-oxo-6-phenyl-2,3-dihydrothiazolo[3,2-a]pyrimidin-4-ium-5-olate], the Average control % in assay [1] (Table 6.1, after 7 days) came to 62%; in assay [1] (Table 6.2, after 7 days), 62%; in assay [6] (Table 2.1, solo application I-R-1, use rate 2 ppm), 25%; in assay [6] (Table 2.2, solo application I-R-1, use rate 2 ppm), 0%; in [6] (Table 2.3, solo application I-R-1, use rate 0.4 ppm), 50%; in assay [6] (Table 2.4, solo application I-R-1, use rate 50 ppm), 0%. Also, the Average control % is 50% in [6] (Table 2.5, solo application I-R-1, use rate 2 ppm); 25% in [6] (Table 2.6, solo application I-R-1, use rate 2 ppm); 25% in [7] (Table 11.1, solo application I-R-1, use rate 50 ppm); 0% in assay [7] (Table 11.2, solo application I-R-1, use rate 10 ppm); 0% in assay [8]; 25% in assay [9] (Table 7.1, solo application I-R-1, use rate 2 ppm). Further, in assay [9] (Table 7.2, solo application I-R-1, use rate 2 ppm), the Average control % is 25%. In the assay with Chilo suppressalis [2], this molecule had a mortality at 300 ppm of 83%. Further, the “Feeding damage (%)” value in the assay on Chilo suppressalis [3] (Chilo suppressalis neonates, foliar spraying, Dose 200 ppm, 14 DAT) is reported as 7%; in the assay on Chilo suppressalis [5], 7%. The molecule also returned a mortality at 200 ppm in the assay with Chilo suppressalis [3] (Chilo suppressalis, foliar, 336 h) of 99%. This molecule registered a mortality at 10 ppm in assay [4] of 100%.
